Source: patent US20230271956A1, “AMIDE DERIVATIVES” (Merck Patent GmbH, priority 2020, published 2023)

Columns and labels:
[1] = target: T1, human rec ACSS2 (Homo sapiens, UniProt Q9NR19); experiment: Biochemical activity ACSS2 assay (AMP-Glo); conditions: human recombinant ACSS2, AMP-Glo, 180 min at 37° C.
T1 construct: myc (C); purchased Origene
Procedure: The biochemical activity assay for ACSS2 is based on the detection of released AMP by AMP-Glo ™ Assay kit (Promega, Madison). The assay is run in three steps: the enzymatic reaction in which human rec ACSS2 activates acetate with ATP and Coenzyme A as cosubstrates to acetyI-coA thereby releasing AMP and the detection reaction of AMP by AMP Glo assay in which after the destruction of the residual ATP with AMP Glo reagent 1 produced AMP is converted to ATP that is measured in a luciferase assay system (detection reagent). The ACSS2 activity correlates with the detected luminescence signal.
The assay was performed in Perkin Elmer 384well white Proxiplates in a total volume of 8 µl.
1 nM (fc) C-term myc tagged ACSS2 (human, recombinant, Origene, Rockville, US) and a mixture of 100 µM (fc) ATP, 100 µM (fc) Coenzyme A and 500 µM (fc) sodium acetate were incubated in a total volume of 5 µl (50 mM Hepes, 1 mM Mg-chloride, 150 mM NaCl, 1 mM DTT, 0.01 % (w/v) BSA, 0.3 % DMSO, pH 7.5) in the absence or presence of the test compound (10 dilution concentrations, start conc 30 µM) for 180 min at 37° C. The reaction was stopped and residual ATP destroyed by the addition of 1 µl AMP Glo reagent solution (Promega, Madison, US). After 1 h incubation at room temperature 2 µl of AMP Glo detection reagent was added and the assay was incubated for 0.75 hr at room temperature. The luminescence signal was measured with an Envision multimode reader (Perkin Elmer LAS Germany GmbH) at 700 nm in luminescence mode. The full value used was the inhibitor-free reaction. The pharmacological zero value was generated by addition of ACSS2 inhibitor (Ac-CoA Synthase Inhibitor - CAS 508186-14-9 -Calbiochem) in a final concentration of 5 µM. The inhibitory values (IC50) were determined using the program Assay Analyzer® from GeneData.

[2] = target: T2, ACSS2 (Homo sapiens, UniProt Q9NR19); experiment: Cellular assay of 14C acetate incorporation into histones (IC50 ACSS2 cellular histone); assay type: cell-based; conditions: HCT-15 cells
T2 construct: endogenous fatty acid synthesis activity in the human HCT-15 cancer cell line; endogenous in cells; host or cells: HCT-15
T2 sequence (Q9NR19 whole entry): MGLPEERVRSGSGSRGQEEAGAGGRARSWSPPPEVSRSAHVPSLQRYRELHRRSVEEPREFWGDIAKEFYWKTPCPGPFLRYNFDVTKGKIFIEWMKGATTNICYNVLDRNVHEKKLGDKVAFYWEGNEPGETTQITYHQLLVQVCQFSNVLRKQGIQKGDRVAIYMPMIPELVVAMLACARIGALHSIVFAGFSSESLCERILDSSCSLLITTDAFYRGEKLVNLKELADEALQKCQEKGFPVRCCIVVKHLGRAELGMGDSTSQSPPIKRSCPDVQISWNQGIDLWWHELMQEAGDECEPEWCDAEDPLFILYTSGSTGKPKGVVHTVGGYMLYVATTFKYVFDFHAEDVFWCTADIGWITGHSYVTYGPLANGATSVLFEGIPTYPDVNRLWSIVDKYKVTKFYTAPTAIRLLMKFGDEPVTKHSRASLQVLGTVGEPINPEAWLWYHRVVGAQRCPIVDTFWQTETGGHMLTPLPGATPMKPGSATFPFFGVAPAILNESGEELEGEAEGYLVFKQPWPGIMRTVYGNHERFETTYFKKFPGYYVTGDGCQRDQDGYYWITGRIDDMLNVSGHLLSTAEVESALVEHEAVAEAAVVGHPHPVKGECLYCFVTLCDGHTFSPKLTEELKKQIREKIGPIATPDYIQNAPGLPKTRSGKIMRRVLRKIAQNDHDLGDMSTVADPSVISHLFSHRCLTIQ
Procedure: This protocol describes a cellular assay capable to quantify endogenous histone acetylation activity in the human HCT-15 cancer cell line following the incorporation of extracellularly administered radiolabeled ^14C acetate with a scintillation based read out on acid extracted histones.
HCT-15 cells are trypsinized, washed and suspended in DMEM culture medium supplemented with penicillin/streptomycin (100 U/mL), sodium pyruvate (1 mM), and 10% FBS
Compounds serial dilutions are prepared in 96-well V-bottom microplate from 10 mM stock solutions in DMSO. From these dilutions 0.5 µl are transferred to a fresh plate including pure DMSO as negative control. The dilutions are prepared such, that the final concentration in the assay is 1/400 of the concentration in the serial dilution. The final DMSO concentration in the assay is 0.25 %.
The cell suspension is seeded at densities of 2x10^5 cells per 170 µl into individual wells of a 96 well plate each containing 0.5 µl aliquots of compound serial dilutions and are kept for 1h in a cell incubator. To each well 30 µL of a mixture containing 0.5 mCi/mL of ^14C-acetate with full medium are added. Then, the wells are incubated for 3 hrs in the cell incubator.
Further steps of the procedure should be conducted on ice or instrumentations precooled to 4° C. Cells are sedimented in the 96-well V-bottom microplate by centrifugation (Eppendorf 5804 R) at 1200 rpm for 5 min. The supernatant is removed and the cells are washed twice with 200µL of PBS-NaB (5 mM sodium butyrate) buffer by iterative resuspension and centrifugation. Finally, the cells are resuspended in 50 µL of TEB (PBS-NaB + 0.5 % Triton X-100) and left on ice for 10 minutes. After centrifugation at 2300 rpm for 10 minutes at 4° C. the supernatant is removed, the remaining pellet is suspended in 50 µL of 0.2 M HCl and incubated over night at 4° C. After incubation the well plate is shaken for 2 minutes in a MTP plate shaker set to 1200 rpm and then centrifuged at 3700 rpm for 10 mins. The lysate is carefully aspirated (~43 µL) and transferred into a white MTP plate (Greiner bio-one 65509). 90 µL of Ultima Gold XR scintillation cocktail are added and the plates are sealed with a transparent cover tape before mixing vigorously using plate shaker set to 1200 rpm. Radioactivity from ^14C incorporation in the wells is measured as CPM count in a MicroBeta Trilux luminescence counter.

T1 sequence (Q9NR19 whole entry): as above

| Compound | IC50 [1] [nM] | IC50 [2] [nM] |
| --- | --- | --- |
| CCn1cc(NC(=O)c2cc3c(nc2Cl)nc(C(O)(c2ccccc2)c2ccc(OC(F)F)cc2F)n3CC)cn1 (racemic) [Compound 81, 5-chloro-2-{[4-(difluoromethoxy)-2-fluorophenyl](hydroxy)phenylmethyl}-1-ethyl-N-(1-ethyl-1H-pyrazol-4-yl)-1H-imidazo[4,5-b]pyridine-6-carboxamide] | 1 to 10 | 10 to 100 |
| CCn1cnc(NC(=O)c2cc3c(nc2C)nc(C(O)(c2ccccc2F)c2ccccc2F)n3CC)n1 [Compound 106, 2-[bis(2-fluorophenyl)(hydroxy)methyl]-1-ethyl-N-(1-ethyl-1H-1,2,4-triazol-3-yl)-5-methyl-1H-imidazo[4,5-b]pyridine-6-carboxamide] | 1 to 10 | 1 to 10 |
| CCc1cc2nc(C(O)(c3ccccc3)c3ccccc3)c(CC)n2cc1C(=O)Nc1ncn(CC)n1 (racemic) [Compound 33, 3,7-diethyl-N-(1-ethyl-1H-1,2,4-triazol-3-yl)-2-(hydroxydiphenylmethyl)imidazo[1,2-a]pyridine-6-carboxamide] | 10 to 100 | – |
| CCn1cnc(NC(=O)c2cc3c(nc2OC)nc(C(O)(c2ccccc2)c2ccn(C)n2)n3CC)n1 (racemic) [Compound 40, 1-ethyl-N-(1-ethyl-1H-1,2,4-triazol-3-yl)-2-[hydroxy(1-methyl-1H-pyrazol-3-yl)phenylmethyl]-5-methoxy-1 H-imidazo[4,5-b]pyridine-6-carboxamide] | 10 to 100 | – |
| CCn1cnc(NC(=O)c2cc3c(nc2OC)nc(C(O)(c2ccccc2)c2cnn(C)c2)n3CC)n1 (racemic) [Compound 48, 1-ethyl-N-(1-ethyl-1H-1,2,4-triazol-3-yl)-2-[hydroxy(1-methyl-1H-pyrazol-4-yl)phenylmethyl]-5-methoxy-1H-imidazo[4,5-b]pyridine-6-carboxamide] | 100 to 10000 | 100 to 10000 |
| CCn1cc(NC(=O)c2cc3c(nc2OC)nc(C(O)(c2ccccc2)c2ccc(OC(F)F)cc2)n3CC)cn1 (racemic) [Compound 80, 2-{[4-(difluoromethoxy)phenyl](hydroxy)phenylmethyl}-1-ethyl-N-(1-ethyl-1H-pyrazol-4-yl)-5-methoxy-1H-imidazo[4,5-b]pyridine-6-carboxamide] | 10 to 100 | 10 to 100 |
| CCn1cc(NC(=O)c2cc3c(nc2OC)nc(C(O)(c2ccccc2)c2ccccc2)n3CC)cn1 [Compound 105, 1-ethyl-N-(1-ethyl-1 H-pyrazol-4-yl)-2-(hydroxydiphenylmethyl)-5-methoxy-1 H-imidazo[4,5-b]pyridine-6-carboxamide] | 1 to 10 | 1 to 10 |
| CCn1cnc(NC(=O)c2cc3c(nc2OC)nc(C(O)(c2ccccc2)c2ccc4ccccc4n2)n3CC)n1 (racemic) [Compound 35, 1-ethyl-N-(1-ethyl-1H-1,2,4-triazol-3-yl)-2-[hydroxy(phenyl)(quinolin-2-yl)methyl]-5-methoxy-1H-imidazo[4,5-b]pyridine-6-carboxamide] | 1 to 10 | – |
| CCn1cc(NC(=O)c2cc3c(nc2Cl)nc(C(O)(c2ccccc2)c2ccc(OC(F)F)cc2)n3CC)cn1 (racemic) [Compound 84, 5-chloro-2-{[4-(difluoromethoxy)phenyl](hydroxy)phenylmethyl}-1-ethyl-N-(1-ethyl-1H-pyrazol-4-yl)-1H-imidazo[4,5-b]pyridine-6-carboxamide] | 10 to 100 | 10 to 100 |
| CCn1cnc(NC(=O)c2cc3c(nc2OC)nc(C(O)(c2ccccc2)c2nccs2)n3CC)n1 (racemic) [Compound 44, 1-ethyl-N-(1-ethyl-1H-1,2,4-triazol-3-yl)-2-[hydroxy(phenyl)(1,3-thiazol-2-yl)methyl]-5-methoxy-1H-imidazo[4,5-b]pyridine-6-carboxamide] | 1 to 10 | 1 to 10 |
| CCn1cc(NC(=O)c2cc3c(nc2Cl)nc(C(O)(c2ccccc2F)c2ccccc2F)n3CC)cn1 [Compound 101, 2-[bis(2-fluorophenyl)(hydroxy)methyl]-5-chloro-1-ethyl-N-(1-ethyl-1H-pyrazol-4-yl)-1H-imidazo[4,5-b]pyridine-6-carboxamide] | 1 to 10 | 0.01 to 1 |
| CCn1cnc(NC(=O)c2cc3c(nc2OC)nc(C(O)(c2ccccc2)c2ccccc2)n3C)n1 [Compound 36, N-(1-ethyl-1H-1,2,4-triazol-3-yl)-2-(hydroxydiphenylmethyl)-5-methoxy-1-methyl-1H-imidazo[4,5-b]pyridine-6-carboxamide] | 0.01 to 1 | – |
| [2H]c1c([2H])c([2H])c(C(O)(c2c([2H])c([2H])c([2H])c([2H])c2[2H])c2nc3nc(OC)c(C(=O)Nc4ncn(CC)n4)cc3n2CC)c([2H])c1[2H] [Compound 37, 1-ethyl-N-(1-ethyl-1H-1,2,4-triazol-3-yl)-2-{hydroxybis[(2,3,4,5,6-^2H5)phenyl]methyl}-5-methoxy-1 H-imidazo[4,5-b]pyridine-6-carboxamide] | 0.01 to 1 | – |
| CCc1c(C(O)(c2ccccc2)c2nccs2)nc2cc(OC)c(C(=O)Nc3ncn(CC)n3)cn12 (racemic) [Compound 32, 3-ethyl-N-(1-ethyl-1H-1,2,4-triazol-3-yl)-2-[hydroxy(phenyl)(1,3-thiazol-2-yl)methyl]-7-methoxyimidazo[1,2-a]pyridine-6-carboxamide] | 10 to 100 | – |
| CCn1cnc(NC(=O)c2cc3c(nc2OC)nc(C(O)(c2ccccc2)c2ccccc2C)n3CC)n1 (racemic) [Compound 56, 1-ethyl-N-(1-ethyl-1H-1,2,4-triazol-3-yl)-2-[hydroxy(2-methylphenyl)phenylmethyl]-5-methoxy-1H-imidazo[4,5-b]pyridine-6-carboxamide] | 1 to 10 | – |
| CCc1c(C(O)(c2ccccc2)c2ccc(C)s2)nc2cc(OC)c(C(=O)Nc3ncn(CC)n3)cn12 (single isomer, unassigned) [Compound 26, 3-Ethyl-2-[hydroxy-(5-methyl-thiophen-2-yl)-phenyl-methyl]-7-methoxy-imidazo[1,2-a]pyridine-6-carboxylic acid (1-ethyl-1H-[1,2,4]triazol-3-yl)-amide] | 100 to 10000 | – |
| CCn1cnc(NC(=O)c2cc3c(nc2OC)nc(C(O)(c2ccccc2)c2ccsc2)n3CC)n1 (racemic) [Compound 39, 1-ethyl-N-(1-ethyl-1H-1,2,4-triazol-3-yl)-2-[hydroxy(phenyl)(thiophen-3-yl)methyl]-5-methoxy-1H-imidazo[4,5-b]pyridine-6-carboxamide] | 1 to 10 | – |
| CCc1c(C(O)(c2ccccc2)c2ccc(C)s2)nc2cc(OC)c(C(=O)Nc3ncn(CC)n3)cn12 (single isomer, unassigned) [Compound 27, 3-Ethyl-2-[hydroxy-(5-methyl-thiophen-2-yl)-phenyl-methyl]-7-methoxy-imidazo[1,2-a]pyridine-6-carboxylic acid (1-ethyl-1H-[1,2,4]triazol-3-yl)-amide] | 1 to 10 | – |
| CCn1cnc(NC(=O)c2cc3c(nc2OC)nc(C(O)(c2ccsc2)c2ccsc2)n3CC)n1 [Compound 38, 1-ethyl-N-(1-ethyl-1H-1,2,4-triazol-3-yl)-2-[hydroxybis(thiophen-3-yl)methyl]-5-methoxy-1H-imidazo[4,5-b]pyridine-6-carboxamide] | 1 to 10 | – |
